Experimental data published in patent US20230242993A1, “METHOD FOR SCREENING MARKERS FOR PREDICTING PROGNOSIS OF RENAL CELL CARCINOMA USING TRANSCRIPTOMIC ANALYSIS” (Gwangju Institute of Science and Technology, priority 2021, published 2023).

Assays:
[1] = system: RCC cells co-transplanted with macrophages; assay: Zebrafish cancer xenograft model of RCC cell dissemination (early stage of metastasis); format: in vivo; settings: macrophages treated with compound before co-transplantation with RCC cells into zebrafish embryos; vs DMSO-treated macrophages; FIGS. 14, 15
Method: Evaluation of in vivo mouse RCC cell dissemination (early stage of metastasis) was performed by using a validated zebrafish model.
Embryos of 48 hours post-fertilization were prepared for cell xenotransplantation and either 39 or 44 embryos were used for each treatment group. After the RCC cells were stained with 2 μg/mL DiI (Invitrogen), the villus of the embryos was removed, and then the embryos were anesthetized with 0.0016% tricaine. An injector (Picospritzer ? , Parker Hannifin, Cleveland, Ohio, USA) was used to inject 200 RCC cells into the center of egg yolk or a mixture of the RCC cells and DMSO-treated macrophages or of the RCC cells and DUSP inhibitor-treated macrophages (1:1 ratio) was injected to the center of egg yolk. The xenotransplanted embryos were transferred to a 96-well plate of 200 μL of E3 medium. The number of embryos, representing the dissemination of cancer cells from the injection site, was counted by using a fluorescence microscope (Leica DM2500 Microscope).

[2] = system: RENCA RCC cells co-cultured with RAW264.7 macrophages; assay: Transwell invasion analysis of RENCA RCC cells co-cultured with RAW264.7 macrophages; format: cell-based, mouse; settings: compound treatment, FIGS. 11, 12, 16, 17
Method: RENCA mouse renal epithelial adenocarcinoma cells and RAW264.7 mouse macrophages were purchased from the Korean Cell Line Bank (Seoul, Korea). RENCA and RAW264.7 cells were maintained in Dulbecco's Modified Eagle Medium (DMEM) medium (Gibco, Thermo Fisher Scientific, Waltham, Mass., USA) supplemented with 10% FBS and 1% penicillin/streptomycin.
Cancer cell invasion analysis was performed in a 24-well transwell plate (Corning Costar, New York, N.Y., USA). A transwell having a pore size of 8 μm was coated with Type I collagen (3 μg/60 μL/well). A total of 4×10^4 bone marrow-derived macrophage (BMDM) cells were seeded in the lower chamber and differentiated into macrophages by using cancer CM. A total of 1×10^4 cancer cells were seeded into the upper transwell. After 24 or 48 hours, cancer cells that invaded into the lower chamber through the porous membrane were fixed with 3.7% formaldehyde and stained with 0.2% crystal violet. Images of the stained cells were obtained by using an optical microscope (CKX41, Olympus, Tokyo, Japan) and analyzed by using the ImageJ software program (NIH, Bethesda, Md., RRID:SCR_003070). To evaluate the effect of DUSP22 or MAPK14 knockdown, 1×10^5 RAW264.7 cells were seeded in the lower chamber and transfected with siRNA.

SMILES | dissemination (early stage of metastasis) in vivo [1] | RCC invasion induced by the co-culture with macrophages [2]
O=C(O)c1ccc(N2C(=O)/C(=C/c3ccccc3)SC2=S)cc1 [BML-260] | significantly inhibited | inhibited
O=C(O)c1ccc(/C=C2\SC(=S)N(c3cccc(C(F)(F)F)c3)C2=O)cc1 [CFTRinh-172] |  | inhibited
